According to US20080051379A1, “Compositions and Methods for the Treatment of Peripheral B-Cell Neoplasms” (Trustees of Boston University, priority 2004, published 2008):

Experiments:
[1] = test system: PDE4A, PDE4B or PDE4D expression in CCRF-CEM cells; test: Western analysis of PDE4 isoforms, CCRF-CEM cells; format: cell-based, human; conditions: rolipram
Experimental: B-CLL and CCRF-CEM cells were incubated for 18 hours with media alone, 10 μM rolipram, 10 μM forskolin (Fsk), 1 μM hydrocortisone (HC), or the same concentration of rolipram combined with 1 μM hydrocortisone (Roli+HC) or 10 μM forskolin (Roli+Fsk). Lysates of the cells were then assessed for expression of PDE4A, PDE4B or PDE4D by Western analysis. Equal loading of samples was verified by immunoblotting for tubulin.
30 million B-CLL cells or 10 million CCRF-CEM cells were incubated for 18 hours in media alone or with the addition of drugs as indicated in the text. Western analysis was then carried out as previously described^30.

[2] = test system: glucocorticoid-resistant subclone (CEM-R8); test: MTS cell survival assay, CEM-R8; format: cell-based, human; conditions: dexamethasone-resistant CCRF-CEM cells; 10 μM, 72 hours
Experimental: In FIG. 5A, the polyclonal parental cell line (CCRF-CEM), the single cell-derived glucocorticoid-resistant subclone (CEM-R8) and the single cell-derived glucocorticoid-sensitive subclone (CEM-S2) were cultured for 72 hours in the presence of vehicle (ETOH) or dexamethasone at the concentrations indicated and cell viability was assessed by the MTS assay as described in Methods. In FIG. 5B, the glucocorticoid-resistant subclone (CEM-R8) and the glucocorticoid-sensitive subclone (CEM-S2) were cultured for 72 hours in the presence of hydrocortisone (HC) (10 μM HC for the CEM-R8 cells and 1 μM HC for the CEM-S2 cells), 10 μM forskolin (Fsk), 10 μM rolipram (Rol), or combinations of these agents as indicated, and cell viability was assessed by the MTS assay as described in Methods. FIG. 5C: The glucocorticoid-resistant subclone (CEM-R8) and the glucocorticoid-sensitive subclone (CEM-S2) were cultured for 72 hours in the presence of varying amounts of dibutyryl cAMP (db-cAMP) in the absence (−HC) or presence (+HC) of 1 μM hydrocortisone as indicated, and cell viability was assessed by the MTS assay as described in Methods. […]
Hoechst 33342 and DiOC6(3) apoptosis assays were performed as previously described^22,28. […] The absorbance (O.D.) of the formazan product was determined at 492 nm using a plate reader (Titertek Multiscan Plus, Labsystems). […]

COc1ccc(C2CNC(=O)C2)cc1OC1CCCC1 (centres unmarked) [rolipram, 4-(3-cyclopentyloxy-4-methoxyphenyl)-2-pyrrolidone]
induction of PDE4 isoforms [1]: nor induced any PDE4 isoform | effect on cell viability as single agent [2]: no discernable effect
